We go through 7 compounds from patent US11178871B2, “Herbicidal pyrimidine compounds” (BASF SE, priority 2016, dated 2021).

Common to all, as to type: in vivo
One experiment deals with Matricaria inodora. Nature of the experiment: greenhouse test, post-emergence treatment, MATIN. The settings on record: 2000 g/ha. The source says: (§1) The culture containers used were plastic flowerpots containing loamy sand with approximately 3.0% of humus as the substrate. The seeds of the test plants were sown separately for each species.
(§2) For the post-emergence treatment, the test plants were first grown to a height of 3 to 15 cm, depending on the plant habit, and only then treated with the active ingredients which had been suspended or emulsified in water. For this purpose, the test plants were either sown directly and grown in the same containers, or they were first grown separately as seedlings and transplanted into the test containers a few days prior to treatment.
(§3) Depending on the species, the plants were kept at 10-25° C. or 20-35° C., respectively.
(§4) The test period extended over 2 to 4 weeks. During this time, the plants were tended, and their response to the individual treatments was evaluated.
(§5) Evaluation was carried out using a scale from 0 to 100. 100 means no emergence of the plants, or complete destruction of at least the aerial moieties, and 0 means no damage, or normal course of growth. A good herbicidal activity is given at values of at least 70 and a very good herbicidal activity is given at values of at least 85.
(§6) The plants used in the greenhouse experiments were of the following species: […]

For the next experiment, the system named is Amaranthus retroflexus. Nature of the experiment: greenhouse test, post-emergence treatment, AMARE. A digest of the protocol:
(§7)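 Visual rating on a 0-100 scale (100 = aerial parts destroyed or no emergence) was made 2-4 weeks after treating plants of 3-15 cm height with water-suspended or emulsified compound. Pots held loamy sand with approximately 3.0% humus; temperature 10-25 °C or 20-35 °C according to species.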

The test system of another experiment is Abutilon theophrasti. Nature of the experiment: greenhouse test, post-emergence treatment, ABUTH. The settings on record: 2000 g/ha.
Text: as §1, §2, §3, §4, §5, §6

The subject of the next experiment is Polygonum convolvulus. Nature of the experiment: greenhouse test, post-emergence treatment, POLCO.
Text: as §1, §2, §3, §4, §5, §6

In the next experiment the test system is Alopecurus myosuroides. Nature of the experiment: greenhouse test, post-emergence treatment, ALOMY. The conditions noted are these: post-emergence. A digest of the protocol: as §7
In another experiment the test system is Echinocloa crus-galli. Nature of the experiment: greenhouse test, post-emergence treatment, ECHCG. A digest of the protocol:
as §7

In experiment [1] the test system is Apera spica-venti. Nature of the experiment: greenhouse test, pre-emergence treatment, APESV. The settings on record: 250 g/ha. A digest of the protocol: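 Scores run from 0, normal growth, to 100, no emergence or aerial parts destroyed, assessed after 2 to 4 weeks at 10-25 °C or 20-35 °C depending on species. Actives in water were spray-applied immediately post-sowing onto loamy sand with approximately 3.0% humus; hoods kept on until rooting.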

The test system of experiment [2] is Apera spica-venti. Nature of the experiment: greenhouse test, post-emergence treatment, APESV.
Text: as §1, §2, §3, §4, §5, §6

Another experiment has as its system Setaria viridis. Nature of the experiment: greenhouse test, post-emergence treatment, SETVI. The conditions noted are these: 1000 g/ha. A digest of the protocol: as §7
Where [3] appears, read: 1000 g/ha, printed under post-emergence, method not restated.

For the compound `COC(=O)C(OC(C)=O)c1nc(C2CC2)ncc1-c1ccccc1Cl` (stereo not shown) [Ex. 222], the herbicidal activity entry in the experiment on Matricaria inodora, in the experiment on Amaranthus retroflexus (2000 g/ha) and in the experiment on Abutilon theophrasti was “very good (a very good herbicidal activity is given at values of at least 85)” throughout.

For `Cc1ccc(-c2nc(C3CC3)ncc2-c2ccccc2I)o1` [Ex. 108], the herbicidal activity entry is on record as “very good (a very good herbicidal activity is given at values of at least 85)” in the experiment with Polygonum convolvulus (500 g/ha) and “good (A good herbicidal activity is given at values of at least 70)” in the experiment with Alopecurus myosuroides (500 g/ha).

Regarding `OCc1nc(C2CC2)ncc1-c1ccccc1Br` [Ex. 13], the herbicidal activity result in the experiment with Polygonum convolvulus (250 g/ha) is “very good (a very good herbicidal activity is given at values of at least 85)”; with Echinocloa crus-galli (post-emergence, 250 g/ha), “very good (a very good herbicidal activity is given at values of at least 85)”; in the experiment with Apera spica-venti [1], “very good (a very good herbicidal activity is given at values of at least 85)”; with Alopecurus myosuroides (250 g/ha), “very good (a very good herbicidal activity is given at values of at least 85)”.

Turning to `CCCc1nc(C)c(-c2nc(C3CC3)ncc2-c2ccccc2Cl)o1` [Ex. 313], the herbicidal activity entry in the experiment on Apera spica-venti [2] (1000 g/ha) was “very good (a very good herbicidal activity is given at values of at least 85)”; in the experiment with Echinocloa crus-galli (setting [3]) it was “very good (a very good herbicidal activity is given at values of at least 85)”; with Echinocloa crus-galli (post-emergence, 1000 g/ha), “very good (a very good herbicidal activity is given at values of at least 85)”; in the experiment on Setaria viridis, “very good (a very good herbicidal activity is given at values of at least 85)”; in the experiment with Alopecurus myosuroides (1000 g/ha), “very good (a very good herbicidal activity is given at values of at least 85)”.

Take `Clc1ccccc1-c1cnc(C2CC2)nc1-c1ncco1` [Ex. 315]: the herbicidal activity result in the experiment with Apera spica-venti [2] (2000 g/ha) was “very good (a very good herbicidal activity is given at values of at least 85)”; with Echinocloa crus-galli (2000 g/ha, printed under post-emergence, method not restated), “very good (a very good herbicidal activity is given at values of at least 85)”; in the experiment on Echinocloa crus-galli (post-emergence, 2000 g/ha) it was “very good (a very good herbicidal activity is given at values of at least 85)”; in the experiment on Amaranthus retroflexus (2000 g/ha), “very good (a very good herbicidal activity is given at values of at least 85)”; in the experiment with Alopecurus myosuroides (2000 g/ha) it was “very good (a very good herbicidal activity is given at values of at least 85)”.

In the case of `Cc1nc(C)c(-c2nc(C3CC3)ncc2-c2c(F)cccc2Cl)o1` [Ex. 309], the herbicidal activity result was “very good (a very good herbicidal activity is given at values of at least 85)” in the experiment on Apera spica-venti [2] (1000 g/ha); “very good (a very good herbicidal activity is given at values of at least 85)” in the experiment on Echinocloa crus-galli (post-emergence, 1000 g/ha); “very good (a very good herbicidal activity is given at values of at least 85)” in the experiment with Amaranthus retroflexus (1000 g/ha); “very good (a very good herbicidal activity is given at values of at least 85)” in the experiment on Alopecurus myosuroides (1000 g/ha).

For `Cc1cnc(-c2nc(C3CC3)ncc2-c2ccccc2Cl)o1` [Ex. 314], the herbicidal activity entry in the experiment with Apera spica-venti [2] (1000 g/ha) is on record as “very good (a very good herbicidal activity is given at values of at least 85)”; with Echinocloa crus-galli (setting [3]), “very good (a very good herbicidal activity is given at values of at least 85)”; in the experiment with Echinocloa crus-galli (post-emergence, 1000 g/ha), “very good (a very good herbicidal activity is given at values of at least 85)”; in the experiment on Setaria viridis, “very good (a very good herbicidal activity is given at values of at least 85)”; in the experiment with Amaranthus retroflexus (1000 g/ha), “very good (a very good herbicidal activity is given at values of at least 85)”.
